In the test the target is T1, Human BCL6 protein (N-terminal HiBiT tagged BCL6 in HT1080 cells) (Homo sapiens, UniProt P41182+Q96SW2).
T1 construct: Human BCL6 protein coding open reading frame; expressed in transfected cells; host or cells: HT1080 (ATCC CCL-121), stably transduced with lentivirus pLV-UBC-N-HiBiT-BCL6-PGK-puro
Nature of the test: HiBiT based BCL6 degradation assay. The conditions noted are these: HT1080 cells expressing N-terminal HiBiT tagged BCL6; 5 hours incubation; BCL6 degradation normalized with DMSO control. Type of test: cell-based. The method, boiled down:
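HT1080 cells stably expressing N-terminal HiBiT-BCL6 were treated with compound dilution series for 5 h at 37° C. in RPMI 1640 with 10% FBS. HiBiT lytic luminescence read after 15 min; degradation normalized to DMSO, with curves fitted by four-parameter logistic model.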
(In general: HiBiT is a short tag that completes a luciferase, so light tracks the accessible tagged protein.)
Turning to `CNC(=O)COc1cc2cc(Nc3nc(N4CCC(CN5CCN(C(=O)c6ccc7c(C8CCC(=O)NC8=O)nn(C)c7c6)CC5)CC4)ncc3Cl)ccc2n(C)c1=O` (stereo not drawn) [Compound 322, 2-((6-((5-chloro-2-(4-((4-(3-(2,6-dioxopiperidin-3-yl)-1-methyl-1H-indazole-6-carbonyl)piperazin-1-yl)methyl)piperidin-1-yl)pyrimidin-4-yl)amino)-1-methyl-2-oxo-1,2-dihydroquinolin-3-yl)oxy)-N-methylacetamide], the “Ymin (5 hr)” value is recorded as “+++ (25% < Ymin ≤ 50%)”. With `CNC(=O)COc1cc2cc(Nc3nc(N4CCC[C@@H](COc5ccc6c(C7CCC(=O)NC7=O)nn(C)c6c5)C4)ncc3Cl)ccc2n(C)c1=O` (stereo partly drawn) [Compound 302b, 2-((6-((5-chloro-2-((3R)-3-(((3-(2,6-dioxopiperidin-3-yl)-1-methyl-1H-indazol-6-yl)oxy)methyl)piperidin-1-yl)pyrimidin-4-yl)amino)-1-methyl-2-oxo-1,2-dihydroquinolin-3-yl)oxy)-N-methylacetamide] the entry was “++ (50% < Ymin ≤ 70%)”; with `CNC(=O)COc1cc2cc(Nc3nc(N4CCN(CC5CCN(C(=O)c6cccc7c(C8CCC(=O)NC8=O)nn(C)c67)CC5)CC4)ncc3Cl)ccc2n(C)c1=O` (stereo not drawn) [Compound 323, 2-((6-((5-chloro-2-(4-((1-(3-(2,6-dioxopiperidin-3-yl)-1-methyl-1H-indazole-7-carbonyl)piperidin-4-yl)methyl)piperazin-1-yl)pyrimidin-4-yl)amino)-1-methyl-2-oxo-1,2-dihydroquinolin-3-yl)oxy)-N-methylacetamide], “+++ (25% < Ymin ≤ 50%)”. With `CNC(=O)COc1cc2cc(Nc3nc(N4CCCC5(CN(c6ccc7c(C8CCC(=O)NC8=O)nn(C)c7c6)C5)C4)ncc3Cl)ccc2n(C)c1=O` (stereo not drawn) [Compound 329, 2-((6-((5-chloro-2-(2-(3-(2,6-dioxopiperidin-3-yl)-1-methyl-1H-indazol-6-yl)-2,6-diazaspiro[3.5]nonan-6-yl)pyrimidin-4-yl)amino)-1-methyl-2-oxo-1,2-dihydroquinolin-3-yl)oxy)-N-methylacetamide] the entry was “++ (50% < Ymin ≤ 70%)”; with `CNC(=O)COc1cc2cc(Nc3nc(N4CCN(CC5CCN(c6cccc7c(C8CCC(=O)NC8=O)nn(C)c67)CC5)[C@@H](C)C4)ncc3Cl)ccc2n(C)c1=O` (stereo partly drawn) [Compound 308b, 2-((6-((5-chloro-2-((3S)-4-((1-(3-(2,6-dioxopiperidin-3-yl)-1-methyl-1H-indazol-7-yl)piperidin-4-yl)methyl)-3-methylpiperazin-1-yl)pyrimidin-4-yl)amino)-1-methyl-2-oxo-1,2-dihydroquinolin-3-yl)oxy)-N-methylacetamide], “++++ (Ymin ≤ 25%)”; with `CNC(=O)COc1cc2cc(Nc3nc(N4CCC[C@H]4CNc4ccc5c(C6CCC(=O)NC6=O)nn(C)c5c4)ncc3Cl)ccc2n(C)c1=O` (stereo partly drawn) [Compound 279a, 2-((6-((5-chloro-2-((2S)-2-(((3-(2,6-dioxopiperidin-3-yl)-1-methyl-1H-indazol-6-yl)amino)methyl)pyrrolidin-1-yl)pyrimidin-4-yl)amino)-1-methyl-2-oxo-1,2-dihydroquinolin-3-yl)oxy)-N-methylacetamide], “++ (50% < Ymin ≤ 70%)”. For the compound `CNC(=O)COc1cc2cc(Nc3nc(N4CCN(C(=O)C5CCN(c6cccc7c(C8CCC(=O)NC8=O)nn(C)c67)CC5)CC4)ncc3Cl)ccc2n(C)c1=O` (stereo not drawn) [Compound 345, 2-((6-((5-chloro-2-(4-(1-(3-(2,6-dioxopiperidin-3-yl)-1-methyl-1H-indazol-7-yl)piperidine-4-carbonyl)piperazin-1-yl)pyrimidin-4-yl)amino)-1-methyl-2-oxo-1,2-dihydroquinolin-3-yl)oxy)-N-methylacetamide], the “Ymin (5 hr)” value is on record as “++++ (Ymin ≤ 25%)”. With `CNC(=O)COc1cc2cc(Nc3nc(N4CCC[C@@H]4CNc4ccc5c(C6CCC(=O)NC6=O)nn(C)c5c4)ncc3Cl)ccc2n(C)c1=O` (stereo partly drawn) [Compound 279b, 2-((6-((5-chloro-2-((2R)-2-(((3-(2,6-dioxopiperidin-3-yl)-1-methyl-1H-indazol-6-yl)amino)methyl)pyrrolidin-1-yl)pyrimidin-4-yl)amino)-1-methyl-2-oxo-1,2-dihydroquinolin-3-yl)oxy)-N-methylacetamide] the entry was “+++ (25% < Ymin ≤ 50%)”; with `CNC(=O)COc1cc2cc(Nc3nc(N4CC5(CCC(Nc6ccc7c(C8CCC(=O)NC8=O)nn(C)c7c6)CC5)C4)ncc3Cl)ccc2n(C)c1=O` (stereo not drawn) [Compound 341, 2-((6-((5-chloro-2-(7-((3-(2,6-dioxopiperidin-3-yl)-1-methyl-1H-indazol-6-yl)amino)-2-azaspiro[3.5]nonan-2-yl)pyrimidin-4-yl)amino)-1-methyl-2-oxo-1,2-dihydroquinolin-3-yl)oxy)-N-methylacetamide], “++++ (Ymin ≤ 25%)”. In the case of `CNC(=O)COc1cc2cc(Nc3nc(N4CCC[C@H](CN(C)c5cccc6c(C7CCC(=O)NC7=O)nn(C)c56)C4)ncc3Cl)ccc2n(C)c1=O` (stereo partly drawn) [Compound 299a, 2-((6-((5-chloro-2-((3R)-3-(((3-(2,6-dioxopiperidin-3-yl)-1-methyl-1H-indazol-7-yl)(methyl)amino)methyl)piperidin-1-yl)pyrimidin-4-yl)amino)-1-methyl-2-oxo-1,2-dihydroquinolin-3-yl)oxy)-N-methylacetamide], the “Ymin (5 hr)” value was “+++ (25% < Ymin ≤ 50%)”. Next, `CNC(=O)COc1cc2cc(Nc3nc(NC[C@H]4CCCN(c5cccc6c(C7CCC(=O)NC7=O)nn(C)c56)C4)ncc3Cl)ccc2n(C)c1=O` (stereo partly drawn) [Compound 303b, 2-((6-((5-chloro-2-((((3R)-1-(3-(2,6-dioxopiperidin-3-yl)-1-methyl-1H-indazol-7-yl)piperidin-3-yl)methyl)amino)pyrimidin-4-yl)amino)-1-methyl-2-oxo-1,2-dihydroquinolin-3-yl)oxy)-N-methylacetamide]: “++ (50% < Ymin ≤ 70%)”. For the compound `CNC(=O)COc1cc2cc(Nc3nc(N4CCN(CC5CCN(c6cccc7c(C8CCC(=O)NC8=O)nn(C)c67)CC5)[C@H](C)C4)ncc3Cl)ccc2n(C)c1=O` (stereo partly drawn) [Compound 308a, 2-((6-((5-chloro-2-((3R)-4-((1-(3-(2,6-dioxopiperidin-3-yl)-1-methyl-1H-indazol-7-yl)piperidin-4-yl)methyl)-3-methylpiperazin-1-yl)pyrimidin-4-yl)amino)-1-methyl-2-oxo-1,2-dihydroquinolin-3-yl)oxy)-N-methylacetamide], the “Ymin (5 hr)” value is given as “++++ (Ymin ≤ 25%)”. For the compound `CNC(=O)COc1cc2cc(Nc3nc(N4CCC(C5CN(c6ccc7c(C8CCC(=O)NC8=O)nn(C)c7c6)C5)CC4)ncc3Cl)ccc2n(C)c1=O` (stereo not drawn) [Compound 292, 2-((6-((5-chloro-2-(4-(1-(3-(2,6-dioxopiperidin-3-yl)-1-methyl-1H-indazol-6-yl)azetidin-3-yl)piperidin-1-yl)pyrimidin-4-yl)amino)-1-methyl-2-oxo-1,2-dihydroquinolin-3-yl)oxy)-N-methylacetamide], the “Ymin (5 hr)” value is recorded as “+++ (25% < Ymin ≤ 50%)”. With `CNC(=O)COc1cc2cc(Nc3cc(N4CCN(CC5CCN(c6cccc7c(C8CCC(=O)NC8=O)nn(C)c67)CC5)CC4)ncc3Cl)ccc2n(C)c1=O` (stereo not drawn) [Compound 346, 2-((6-((5-chloro-2-(4-((1-(3-(2,6-dioxopiperidin-3-yl)-1-methyl-1H-indazol-7-yl)piperidin-4-yl)methyl)piperazin-1-yl)pyridin-4-yl)amino)-1-methyl-2-oxo-1,2-dihydroquinolin-3-yl)oxy)-N-methylacetamide] the entry was “++++ (Ymin ≤ 25%)”. In the case of `CNC(=O)COc1cc2cc(Nc3nc(N4CCN(CC5CCN(C(=O)c6ccc7c(C8CCC(=O)NC8=O)nn(C)c7c6)CC5)CC4)ncc3Cl)ccc2n(C)c1=O` (stereo not drawn) [Compound 321, 2-((6-((5-chloro-2-(4-((1-(3-(2,6-dioxopiperidin-3-yl)-1-methyl-1H-indazole-6-carbonyl)piperidin-4-yl)methyl)piperazin-1-yl)pyrimidin-4-yl)amino)-1-methyl-2-oxo-1,2-dihydroquinolin-3-yl)oxy)-N-methylacetamide], the “Ymin (5 hr)” value is listed as “+++ (25% < Ymin ≤ 50%)”. In the case of `CNC(=O)COc1cc2cc(Nc3nc(N4CCC[C@H](COc5ccc6c(C7CCC(=O)NC7=O)nn(C)c6c5)C4)ncc3Cl)ccc2n(C)c1=O` (stereo partly drawn) [Compound 302a, 2-((6-((5-chloro-2-((3S)-3-(((3-(2,6-dioxopiperidin-3-yl)-1-methyl-1H-indazol-6-yl)oxy)methyl)piperidin-1-yl)pyrimidin-4-yl)amino)-1-methyl-2-oxo-1,2-dihydroquinolin-3-yl)oxy)-N-methylacetamide], the “Ymin (5 hr)” value is on record as “++ (50% < Ymin ≤ 70%)”. With `CNC(=O)COc1cc2cc(Nc3nc(NC[C@H]4CC[C@@H](CNc5ccc6c(C7CCC(=O)NC7=O)nn(C)c6c5)CC4)ncc3Cl)ccc2n(C)c1=O` (stereo partly drawn) [Compound 293a, 2-((6-((5-chloro-2-((((1s,4s)-4-(((3-(2,6-dioxopiperidin-3-yl)-1-methyl-1H-indazol-6-yl)amino)methyl)cyclohexyl)methyl)amino)pyrimidin-4-yl)amino)-1-methyl-2-oxo-1,2-dihydroquinolin-3-yl)oxy)-N-methylacetamide] the entry was “+++ (25% < Ymin ≤ 50%)”; with `CNC(=O)COc1cc2cc(Nc3nc(NC[C@H]4CC[C@@H](Nc5cccc(C6CCC(=O)NC6=O)c5)CC4)ncc3Cl)ccc2n(C)c1=O` (stereo partly drawn) [Compound 262a, 2-((6-((5-chloro-2-((((1s,4s)-4-((3-(2,6-dioxopiperidin-3-yl)phenyl)amino)cyclohexyl)methyl)amino)pyrimidin-4-yl)amino)-1-methyl-2-oxo-1,2-dihydroquinolin-3-yl)oxy)-N-methylacetamide], “++ (50% < Ymin ≤ 70%)”.

The values above are taken from US20250270191A1, “QUINOLONE BCL6 BIFUNCTIONAL DEGRADERS” (Treeline Biosciences, Inc., priority 2022, published 2025).
